Test results reported in patent US11752162B2, “Compounds and compositions for treating solid tumors by intratumoral administration” (Novartis AG, priority 2017, dated 2023).

How the values were obtained:
[1] = in vivo; conditions: male, Wistar, rat, iv, 1 mg/kg
Procedure: Note: The pharmacokinetic properties of Compound 15 in 50 mM Tris/0.9% NaCl (pH 7.4) were examined in male Wistar rats following a single 1 mg/kg intravenous bolus administration.

[2] = Wistar rat subcutaneous PK dose study (Example 9); type: in vivo; conditions: sc, 600 ug, 600 μg Compound 15 s.c., male Wistar rats, plasma
Procedure: The pharmacokinetic properties of Compound 15 were examined in naïve male Wistar rats following: • a) a single 200 μL subcutaneous (s.c.) injection of 600 μg of free form Compound 15 in 100 mM Tris buffer pH 7.4; • b) a single 200 μL subcutaneous (s.c.) injection of 50 μg of Compound 15 adsorbed to aluminum hydroxide at a 1:2.5 ratio (w/w) of Compound 15 to aluminum hydroxide-Suspension E described below; • c) a single 200 μL subcutaneous (s.c.) injection of 200 μg of Compound 15 adsorbed to aluminum hydroxide at a 1:2.5 ratio (w/w) of Compound 15 to aluminum hydroxide-Suspension D described below, and • d) a single 200 μL subcutaneous (s.c.) injection of 600 μg of Compound 15 adsorbed to aluminum hydroxide at a 1:2.5 ratio (w/w) of Compound 15 to aluminum hydroxide-Suspension C described below.
In this study, male Wistar rats (n=3 per group) were injected subcutaneously (s.c.) with 600 μg free Compound 15 or increasing doses of 50, 200 and 600 μg of Compound 15 absorbed to aluminum hydroxide. An injection volume of 200 μL of Suspension E, Suspension D and Suspension C was used to obtain 50, 200 and 600 μg of Compound 15 absorbed to aluminum hydroxide, respectively. The injection volume of 200 μL per rat was not normalized to body weights of the rats. As described above the Compound 15/aluminum hydroxide ratio for Suspension E, Suspension D and Suspension C was fixed at 1:2.5 w/w.
Blood samples (˜100 μL each) were taken serially via saphenous bleed from each rat until 96 h post dose (see Table 9 for sampling schedule). Blood samples were centrifuged to separate plasma and the plasma samples were frozen at −20° C. prior to analysis using LC/MS/MS (as described in Example 5) to obtain the systemic concentrations of Compound 15.

[3] = tested on: A20 tumors; assay: Mouse syngeneic lymphoma A20 bilateral tumor model, single agent dose response; type: in vivo; conditions: Compound 15 alone i.t., two weekly doses
Procedure: The anti-tumor efficacy of Compound 15 adsorbed to Alhydrogel® was determined using the mouse syngeneic lymphoma A20 bilateral tumor model in female BALB/c mice.
A20 cells were grown in sterile conditions in a 37° C. incubator with 5% CO2 for two weeks. Cells were grown in RPMI 1640 medium with 2 mM L-glutamine adjusted to contain 1.5 g/L sodium bicarbonate, 4.5 g/L glucose, 10 mM HEPES, and 1.0 mM sodium pyruvate and supplemented with 0.05 mM 2-mercaptoethanol, 10% fetal bovine serum. Cells were passaged every 2-3 days. For the day of implant cells were lifted (passage 12) and re-suspended in HBSS at a concentration of 5×10^6 cells/100 μL. Cells were Radil tested for mycoplasma and murine viruses. For each mouse, 5×10^6 cells were implanted by subcutaneous injection into the right and left flank using a 28.5 g needle (100 μl injection volume). Tumor sizes were assessed three times a week once tumors were palpable. Tumor sizes were determined by using caliper measurements, with tumor volumes calculated using the formula: (Length×Width×Width)/2.
The female Balb/c mice bearing the A20 tumors were randomized into 7 groups (n=10 mice per group) 8 days post tumor cell implantation with an average tumor volume range of 111.40±23.57 mm^3. […]
Tumor volumes were measured by digital caliper 3 times a week and body weights of all animals were recorded throughout the study. […]

- MRT [1]: 12 min
- half-life [1]: 72 min
- clearance ([1]; pH 7.4): 9.2 mL/min/kg
- AUC(0-inf) [2]: 2560 ng·h/mL
- Cmax [2]: 3660 ng/mL
- Tmax [2]: 15 min
- half-life [2]: 126 min
SMILES: Cc1cc(OCCOCCC(F)(F)P(=O)(O)O)ccc1CCc1cnc2c(N)nc3cc(CCC(=O)O)ccc3c2c1 [Compound 15, 3-(5-amino-2-(4-(2-(3,3-difluoro-3-phosphonopropoxy)ethoxy)-2-methylphenethyl)benzo[f][1,7]naphthyridin-8-yl)propanoic acid]
- tumor growth, both tumor sites [3]: no significant difference in both tumor sites
